In assay [1] the target is T1, human TLR2 (Homo sapiens, UniProt O60603).
T1 construct: host or cells: HEK-Blue hTLR2 (HEK-293)
Briefly: HEK-Blue hTLR2 antagonism assay (SEAP reporter) with agonist Pam2CSK4 (TLR2/6 agonist). It is filed as cell-based. To be noted: Table A; HEK-Blue hTLR2 cells, ~3×EC50 Pam2CSK4, 18 h, SEAP OD 655 nm, 8-point dilutions. The procedure:
(§1) Synthetic diacylated lipoprotein (Pam2CSK4, TLR2/6 agonist) and synthetic triacylated lipoprotein (Pam3CSK4, TLR1/2 agonist) were obtained from InvivoGen and were dissolved in endotoxin-free water to a concentration 1 mg/mL, vortexed until complete solubilization, and stored in aliquots at −20° C. Prior to addition to cells, an aliquot of the dissolved ligand was vortexed shortly and then was diluted in medium to 25 ng/mL Pam2CSK4 or 1000 ng/mL Pam3CSK4.
(§2) Test compounds were solubilized fresh to 10-20 mM stocks in DMSO and sonicated for 5-10 minutes in a water bath sonicator. Serial dilutions were prepared in DMSO, and then diluted in medium. The final concentration of DMSO used in the assay was 1%.
(§3) HEK-Blue hTLR2 reporter cells (InvivoGen) are HEK-293 cells stably expressing both the human TLR2 gene and a secreted embryonic alkaline phosphatase (SEAP) reporter construct downstream of NFκB promotor sites. HEK-Blue hTLR2 reporters were cultured according to manufacturer's protocol using Dulbecco's Modified Eagle Medium (DMEM; Gibco) containing 1× GlutaMax (Gibco), 10% heat-inactivated Fetal Bovine Serum (Gibco), Pen-Strep (50 U/mL penicillin, 50 μg/mL streptomycin, Gibco), 100 μg/mL Normocin (InvivoGen), and the selective antibiotic, 1×HEK-Blue Selection (InvivoGen). Quanti-Blue reagent (InvivoGen) for detection and quantification of secreted alkaline phosphatase was dissolved in 100 mL of endotoxin-free water, warmed to 37° C. for 30 minutes and then filtered using a 0.2 μm membrane.
(§4) On day 1, 50 μL of each test compound dilution in duplicates or a vehicle control was added to each well of a 96-well plate followed by addition of 150 μL of HEK-Blue hTLR2 cell suspension (1×10^5 cells/well) and incubated at 37° C./5% CO2 for 2 h. Next, 50 μL of an approximate 3×EC50 concentration of each agonist (Pam2CSK4 or Pam3CSK4) was added to the wells containing test compounds or the vehicle control. The plates were then incubated at 37° C./5% CO2 for 18 h. For each assay run, non-treated HEK-Blue hTLR2 cells were treated with serial dilutions of agonists to determine EC50 values for the respective run.
(§5) On day 2, secreted alkaline phosphatase (SEAP) activity was detected in cell culture supernatants. In brief, 20 μL was collected from each well and transferred to a 96-well plate. Next, 200 μL of Quanti-Blue detection reagent was added to each well. Plates were incubated at room temperature for 15 min. and SEAP activity was assessed by spectrophotometer OD reading at 655 nm. […] IC50 values were calculated based on 8-point dilutions for each compound.

Assay [2] concerns the target T1, human TLR2. The experiment in a line: HEK-Blue hTLR2 antagonism assay (SEAP reporter) with agonist Pam3CSK4 (TLR1/2 agonist). It is filed as cell-based. To be noted: Table A; HEK-Blue hTLR2 cells, ~3×EC50 Pam3CSK4, 18 h, SEAP OD 655 nm, 8-point dilutions. The method, then:
as §1, §2, §3, §4, §5

Molecules are shown by their SMILES.

T1 sequence (O60603 21-784): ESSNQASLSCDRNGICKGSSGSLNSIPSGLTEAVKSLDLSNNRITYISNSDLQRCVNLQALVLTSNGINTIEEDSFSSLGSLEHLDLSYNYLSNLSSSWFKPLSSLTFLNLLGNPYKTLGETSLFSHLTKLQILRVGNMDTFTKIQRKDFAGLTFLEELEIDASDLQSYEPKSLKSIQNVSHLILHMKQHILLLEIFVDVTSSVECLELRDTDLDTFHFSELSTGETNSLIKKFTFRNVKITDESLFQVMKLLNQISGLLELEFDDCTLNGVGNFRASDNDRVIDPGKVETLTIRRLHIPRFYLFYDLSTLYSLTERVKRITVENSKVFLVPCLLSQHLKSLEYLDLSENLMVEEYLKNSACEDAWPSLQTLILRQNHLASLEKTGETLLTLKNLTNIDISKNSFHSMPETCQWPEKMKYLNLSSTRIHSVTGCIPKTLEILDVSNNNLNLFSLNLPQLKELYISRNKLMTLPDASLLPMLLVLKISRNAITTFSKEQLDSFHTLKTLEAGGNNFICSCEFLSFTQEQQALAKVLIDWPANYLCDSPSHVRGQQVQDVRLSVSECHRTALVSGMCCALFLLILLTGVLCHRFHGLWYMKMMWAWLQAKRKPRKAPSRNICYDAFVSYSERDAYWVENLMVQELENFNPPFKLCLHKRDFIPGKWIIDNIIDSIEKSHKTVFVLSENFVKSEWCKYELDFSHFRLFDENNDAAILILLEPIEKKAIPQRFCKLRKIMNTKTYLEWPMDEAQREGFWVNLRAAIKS

Regarding `COc1cc(-c2cnn(-c3cccc(Cl)c3)c2)cc(C=O)c1O` [Compound A3, 5-(1-(3-chlorophenyl)-1H-pyrazol-4-yl)-2-hydroxy-3-methoxybenzaldehyde], the IC50 (commonly the concentration that inhibits the measured activity by half) on human TLR2 [1] is 9.9 µM; at human TLR2 [2], 8.3 µM.
In the same order, the values of `COc1cc(-c2cnn(Cc3ccccc3)c2)cc(C=O)c1O` [Compound A4, 5-(1-benzyl-1H-pyrazol-4-yl)-2-hydroxy-3-methoxybenzaldehyde] are 8.5 µM and 10.5 µM.
In the same order, the values of `COc1cc(-c2cnn(C3CCOCC3)c2)cc(C=O)c1O` [Compound A5, 2-hydroxy-3-methoxy-5-(1-(tetrahydro-2H-pyran-4-yl)-1H-pyrazol-4-yl)benzaldehyde] are greater than 100 µM and greater than 100 µM.
As to `COc1cc(-c2cnn(-c3ccc(F)cc3)c2)cc(C=O)c1O` [Compound A6, 5-(1-(4-fluorophenyl)-1H-pyrazol-4-yl)-2-hydroxy-3-methoxybenzaldehyde], the IC50 on human TLR2 [1] was found to be 14.1 µM; at human TLR2 [2], 12 µM.
As to `COc1cc(-c2cnn(-c3cccc(C(F)(F)F)c3)c2)cc(C=O)c1O` [Compound A9, 2-hydroxy-3-methoxy-5-(1-(3-(trifluoromethyl)phenyl)-1H-pyrazol-4-yl)benzaldehyde], the half-maximal inhibitory concentration (IC50) at human TLR2 [1] stood at 3.8 µM; on human TLR2 [2], 5.1 µM.
As for `COc1ccc(Cn2cc(-c3cc(C=O)c(O)c(OC)c3)cn2)cc1` [Compound A10, 2-hydroxy-3-methoxy-5-(1-(4-methoxybenzyl)-1H-pyrazol-4-yl)benzaldehyde], the IC50 at human TLR2 [1] and on human TLR2 [2] was 5.2 µM each time.
In the case of `O=Cc1cc(-c2cnn(-c3ccccc3)c2)cc(F)c1O` [Compound A11, 3-fluoro-2-hydroxy-5-(1-phenyl-1H-pyrazol-4-yl)benzaldehyde], the IC50 on human TLR2 [1] was found to be 2.3 µM; at human TLR2 [2], 2 µM.
In the case of `Cc1cc(-c2cnn(-c3ccccc3)c2)cc(Cl)c1O` [Compound A17, 2-chloro-6-methyl-4-(1-phenyl-1H-pyrazol-4-yl)phenol], the IC50 on human TLR2 [1] is 52.6 µM; at human TLR2 [2], 43.4 µM.
For `Oc1c(F)cc(-c2cnn(-c3ccccc3)c2)cc1F` [Compound A18, 2,6-difluoro-4-(1-phenyl-1H-pyrazol-4-yl)phenol], in that order: greater than 100 µM and greater than 100 µM.
With `O=Cc1cc(-c2cnn(-c3ccc(N4CCCCC4)cc3)c2)cc(F)c1O` [Compound A20, 3-fluoro-2-hydroxy-5-(1-(4-(piperidin-1-yl)phenyl)-1H-pyrazol-4-yl)benzaldehyde], the IC50 was determined as 0.5 µM on human TLR2 [1] and 0.2 µM on human TLR2 [2].
Turning to `O=Cc1cc(-c2cnn(-c3ccc(N4CCOCC4)cc3)c2)cc(F)c1O` [Compound A21, 3-fluoro-2-hydroxy-5-(1-(4-morpholinophenyl)-1H-pyrazol-4-yl)benzaldehyde], the IC50 at human TLR2 [1] is 2.6 µM; at human TLR2 [2], 1.1 µM.
In the same order, the values of `O=Cc1cc(-c2cnn(-c3cccc(N4CCCCC4)c3)c2)cc(F)c1O` [Compound A23, 3-fluoro-2-hydroxy-5-(1-(3-(piperidin-1-yl)phenyl)-1H-pyrazol-4-yl)benzaldehyde] are 0.8 µM and 0.9 µM.
Consider `O=Cc1cc(-c2cnn(-c3cccc(N4CCOCC4)c3)c2)cc(F)c1O` [Compound A24, 3-fluoro-2-hydroxy-5-(1-(3-morpholinophenyl)-1H-pyrazol-4-yl)benzaldehyde], for which the IC50 at human TLR2 [1] is 4.3 µM; at human TLR2 [2], 5.4 µM.
For `O=Cc1cc(-c2ccn(-c3ccc(N4CCCCC4)cc3)n2)cc(F)c1O` [Compound A28, 3-fluoro-2-hydroxy-5-(1-(4-(piperidin-1-yl)phenyl)-1H-pyrazol-3-yl)benzaldehyde], in that order: 0.9 µM and 0.8 µM.
In the same order, the values of `O=Cc1cc(-c2ccn(-c3ccc(N4CCOCC4)cc3)n2)cc(F)c1O` [Compound A29, 3-fluoro-2-hydroxy-5-(1-(4-morpholinophenyl)-1H-pyrazol-3-yl)benzaldehyde] are 6.4 µM and 7.6 µM.
On to `O=Cc1cc(-c2ccn(-c3cccc(N4CCCC4)c3)n2)cc(F)c1O` [Compound A30, 3-fluoro-2-hydroxy-5-(1-(3-(pyrrolidin-1-yl)phenyl)-1H-pyrazol-3-yl)benzaldehyde], for which the IC50 on human TLR2 [1] came to 2.1 µM; at human TLR2 [2], 2.2 µM.
In the same order, the values of `O=Cc1cc(-c2ccn(-c3cccc(N4CCCCC4)c3)n2)cc(F)c1O` [Compound A31, 3-fluoro-2-hydroxy-5-(1-(3-(piperidin-1-yl)phenyl)-1H-pyrazol-3-yl)benzaldehyde] are 3.4 µM and 6.2 µM.
Turning to `O=Cc1cc(-c2ccn(-c3cccc(N4CCOCC4)c3)n2)cc(F)c1O` [Compound A32, 3-fluoro-2-hydroxy-5-(1-(3-morpholinophenyl)-1H-pyrazol-3-yl)benzaldehyde], the IC50 at human TLR2 [1] came to 12.7 µM; at human TLR2 [2], 17.4 µM.
As to `Oc1c(F)cc(-c2cnn(-c3ccc(N4CCCC4)cc3)c2)cc1C1OCCCO1` [Compound A34, 2-(1,3-dioxan-2-yl)-6-fluoro-4-(1-(4-(pyrrolidin-1-yl)phenyl)-1H-pyrazol-4-yl)phenol], the IC50 turned out to be 6.9 µM on human TLR2 [1] and 3.9 µM at human TLR2 [2].
As to `CN1CCN(/N=C/c2cc(-c3cnn(-c4ccc(N5CCCC5)cc4)c3)cc(F)c2O)CC1` [Compound A35, (E)-2-fluoro-6-(((4-methylpiperazin-1-yl)imino)methyl)-4-(1-(4-(pyrrolidin-1-yl)phenyl)-1H-pyrazol-4-yl)phenol], the IC50 on human TLR2 [1] amounted to 1.6 µM; at human TLR2 [2], 0.7 µM.
Consider `Oc1c(F)cc(-c2cnn(-c3ccc(N4CCCC4)cc3)c2)cc1/C=N/N1CCN(C2CC2)CC1` [Compound A36, (E)-2-(((4-cyclopropylpiperazin-1-yl)imino)methyl)-6-fluoro-4-(1-(4-(pyrrolidin-1-yl)phenyl)-1H-pyrazol-4-yl)phenol], for which the IC50 at human TLR2 [1] and on human TLR2 [2] was greater than 100 µM each time.
As to `Oc1c(F)cc(-c2cnn(-c3ccc(N4CCCC4)cc3)c2)cc1/C=N/N1CCOCC1` [Compound A37, (E)-2-fluoro-6-((morpholinoimino)methyl)-4-(1-(4-(pyrrolidin-1-yl)phenyl)-1H-pyrazol-4-yl)phenol], the IC50 on human TLR2 [1] and at human TLR2 [2] was greater than 100 µM in each case.
Regarding `CC(=O)N/N=C/c1cc(-c2cnn(-c3ccc(N4CCCC4)cc3)c2)cc(F)c1O` [Compound A38, N′-(3-fluoro-2-hydroxy-5-(1-(4-(pyrrolidin-1-yl)phenyl)-1H-pyrazol-4-yl)benzylidene)acetohydrazide], the half-maximal inhibitory concentration (IC50) on human TLR2 [1] and at human TLR2 [2] was 0.4 µM in each case.
For `Oc1c(F)cc(-c2cnn(-c3ccc(N4CCCC4)cc3)c2)cc1/C=N/c1ccccc1` [Compound A39, (E)-2-fluoro-6-((phenylimino)methyl)-4-(1-(4-(pyrrolidin-1-yl)phenyl)-1H-pyrazol-4-yl)phenol], the 50% inhibitory concentration (IC50) on human TLR2 [1] and at human TLR2 [2] was 0.5 µM each time.
With `Oc1c(F)cc(-c2cnn(-c3ccc(N4CCCC4)cc3)c2)cc1/C=N/Oc1ccccc1` [Compound A40, (E)-3-fluoro-2-hydroxy-5-(1-(4-(pyrrolidin-1-yl)phenyl)-1H-pyrazol-4-yl)benzaldehyde O-phenyl Oxime], the IC50 was found to be 7.2 µM on human TLR2 [1] and 2.7 µM at human TLR2 [2].

Source of the values: US11299487B2, “Compounds and compositions as modulators of TLR signaling” (Neuropore Therapies, Inc., priority 2019, dated 2022).
